From patent US7998938B2, “Cancer treatment by combined inhibition of proteasome and telomerase activities” (Geron Corporation, priority 2005, dated 2011)
Strand notation (5' to 3'): a small letter for the sugar, then the base; units joined by * are phosphorothioate-linked, units joined directly phosphodiester-linked; [ ] holds rarer units or linkages, { } end groups; capitals alone tell only the bases. [NPS] = N3'→P5' thiophosphoramidate internucleoside linkage; [NP] = N3'→P5' phosphoramidate internucleoside linkage; d = 2'-deoxy (DNA)

The molecules below were run on telomerase (assay: Inhibition of telomerase, biochemical (FlashPlate) assay). Settings: NPS linkages unless NP backbone stated.
Set-up: species or system human

| Molecule | IC50 |
| --- | --- |
| 11-mer; truncation of GRN163 sequence: NPS oligonucleotide TAGGGTTAGAC (SEQ ID NO: 15) (DNA, all [NPS], methylation of C not given here) | 0.85 ± 0.35 nM |
| 12-mer; truncation of GRN163 sequence: NPS oligonucleotide TAGGGTTAGACA (SEQ ID NO: 14) (DNA, all [NPS], methylation of C not given here) | 0.36 ± 0.2 nM |
| Alternative targeting 11-mer: NPS oligonucleotide GTTAGGGTTAG (SEQ ID NO: 16) (DNA dG[NPS]dT[NPS]dT[NPS]dA[NPS]dG[NPS]dG[NPS]dG[NPS]dT[NPS]dT[NPS]dA[NPS]dG) | 0.51 ± 0.13 nM |
| Alternative targeting 13-mer: NPS oligonucleotide CAGTTAGGGTTAG (SEQ ID NO: 13), complementary to nucleotides 46-58 of SEQ ID NO: 1 (DNA, all [NPS], methylation of C not given here) | 0.049 ± 0.007 nM |
| Complement of GRN163 sequence: NPS oligonucleotide TTGTCTAACCCTA (SEQ ID NO: 24) (DNA, all [NPS], methylation of C not given here) | 1000 ± 46 nM |
| Duplex of GRN163 sequence: Duplex TAGGGTTAGACAA / ATCCCAATCTGTT (chemistry not fully specified; one strand is listed 3' to 5') | 8.9 ± 3 nM |
| Mismatch of GRN163 sequence with NP backbone: TAGGTGTAAGCAA with NP backbone (DNA, all [NP], methylation of C not given here) | > 1000 nM |
| Mismatch of GRN163 sequence: NPS oligonucleotide TAGGTGTAAGCAA (SEQ ID NO: 23) (DNA, all [NPS], methylation of C not given here) | 80 ± 31 nM |
| Mismatch of alternative targeting 11-mer: NPS oligonucleotide GTTGAGTGTAG (SEQ ID NO: 25) (DNA dG[NPS]dT[NPS]dT[NPS]dG[NPS]dA[NPS]dG[NPS]dT[NPS]dG[NPS]dT[NPS]dA[NPS]dG) | 177 ± 93 nM |
| Oligo-T 10-mer: Oligonucleotide TTTTTTTTTT (SEQ ID NO: 27) | > 1000 nM |
| Telomere repeat unit: Oligonucleotide TTAGGG (SEQ ID NO: 26) | > 1000 nM |

The molecules below were run on CAG MM cell line (assay: not given). Settings: Group 4, intravenous 0.25 mg/kg; p<0.01.
Assay type: in vivo, NOD/SCID mice
Description: The CAG MM cell line (telomere length 2.7 Kb) was transfected with a retroviral vector encoding a triple fusion gene for HSV-TK, firefly luciferase and green fluorescence protein, and whole animal bioluminescence imaging was undertaken in a disseminated NOD/SCID model with extensive spinal cord and bone marrow tumor infiltration. NOD/SCID mice were not irradiated with gamma ray before cell implantation. […] Bortezomib was administered intravenously at a dose of 0.25 mg/kg (Table 1).
The results are discussed in Section IVA above, with reference to FIGS. 4A-B.

| Molecule | survival relative to PBS controls |
| --- | --- |
| CC(C)C[C@H](NC(=O)[C@H](Cc1ccccc1)NC(=O)c1cnccn1)B(O)O [bortezomib] | significant increase |
